In patent publication US10752609B2, “GSK-3 inhibitors” (priority 2016, dated 2020):
Where two headings read alike, the source gives them in different places.

Assays:
pTau = pTau assay (no method described); format: cell-based
GSK3α = GSK3α (Homo sapiens, UniProt P49840); assay: GSK3α kinase assay (Caliper LabChip3000 mobility shift, fluoresceinated peptide substrate)
Protocol: (§1) The kinase assay was performed in V-bottom 384-well plates. […] The reaction was incubated at room temperature for 20 hours and terminated by adding 45 μl of 35 mM EDTA to each sample. The reaction mixture was analyzed on the Caliper LabChip3000 (Caliper, Hopkinton, Mass.) by electrophoretic separation of the unphosphorylated substrate and phosphorylated product. […] Compounds were dissolved at 10 mM in dimethylsulfoxide (DMSO) and evaluated at eleven concentrations. IC50 values were derived by non-linear regression analysis.

GSK3β = GSK3β (Homo sapiens, UniProt P49841); assay: GSK3β kinase assay (Caliper LabChip3000 mobility shift, fluoresceinated peptide substrate); format: biochemical
Sequence of GSK3β (P49841 whole entry, species assumed): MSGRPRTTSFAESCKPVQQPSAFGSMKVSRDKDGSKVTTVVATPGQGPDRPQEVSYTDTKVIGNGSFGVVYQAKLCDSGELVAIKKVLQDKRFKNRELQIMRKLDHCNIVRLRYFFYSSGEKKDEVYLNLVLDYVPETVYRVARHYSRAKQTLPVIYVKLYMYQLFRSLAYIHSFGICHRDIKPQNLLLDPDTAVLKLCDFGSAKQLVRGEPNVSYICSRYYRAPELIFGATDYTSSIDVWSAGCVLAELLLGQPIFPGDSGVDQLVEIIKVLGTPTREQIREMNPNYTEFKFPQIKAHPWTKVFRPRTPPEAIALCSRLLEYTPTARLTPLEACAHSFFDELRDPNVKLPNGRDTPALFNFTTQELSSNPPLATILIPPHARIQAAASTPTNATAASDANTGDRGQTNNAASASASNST
Protocol: as §1

[1] = 250 pM enzyme, 20 uM ATP, 1.5 uM peptide, 20 hours room temperature, first value of cell GSK3β/GSK3α, read-out: GSK3β (nM), IC50

Sequence of GSK3α (P49840 whole entry, species assumed): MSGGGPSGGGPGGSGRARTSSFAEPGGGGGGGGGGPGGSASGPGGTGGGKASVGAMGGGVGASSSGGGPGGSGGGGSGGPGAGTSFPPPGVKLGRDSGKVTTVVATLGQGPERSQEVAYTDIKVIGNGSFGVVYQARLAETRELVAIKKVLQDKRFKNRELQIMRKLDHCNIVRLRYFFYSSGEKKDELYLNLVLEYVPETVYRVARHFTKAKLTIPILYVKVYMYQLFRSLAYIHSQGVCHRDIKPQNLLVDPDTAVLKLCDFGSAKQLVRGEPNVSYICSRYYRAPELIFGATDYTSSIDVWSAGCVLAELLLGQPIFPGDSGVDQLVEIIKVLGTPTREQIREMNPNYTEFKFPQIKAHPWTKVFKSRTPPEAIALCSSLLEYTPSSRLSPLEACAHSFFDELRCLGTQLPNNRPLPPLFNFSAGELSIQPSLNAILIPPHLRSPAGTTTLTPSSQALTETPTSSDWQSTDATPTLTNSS

Row | Compound | IC50 (pTau) | IC50 (GSK3α) | IC50 (GSK3β; [1]) | IC50 (GSK3β)
1 | O=C(Nc1cnc(F)cc1N1CCC(F)(F)CC1)c1ccnc(Nc2ccccc2)n1 [Example 177, N-(4-(4,4-Difluoropiperidin-1-yl)-6-fluoropyridin-3-yl)-2-(phenylamino)pyrimidine-4-carboxamide] | 60 nM | 0.41 nM | 0.47 nM | 
2 | CC(C)(C)C1CCC(Nc2nccc(C(=O)Nc3cnccc3OCC(F)(F)F)n2)CC1 (stereo not drawn) [Example 121, 2-((4-(tert-Butyl)cyclohexyl)amino)-N-(4-(2,2,2-trifluoroethoxy)pyridin-3-yl)pyrimidine-4-carboxamide] | 61 nM | 0.35 nM | 0.46 nM | 
3 | C[S+]([O-])c1ccc(Nc2nccc(C(=O)Nc3cnccc3-c3ccccc3)n2)cc1 (stereo not drawn) [Example 14, 2-((4-(Methylsulfinyl)phenyl)amino)-N-(4-phenylpyridin-3-yl)pyrimidine-4-carboxamide] | 14 nM | 0.18 nM | 0.39 nM | 
4 | O=C(Nc1cncnc1OCC(F)(F)F)c1ccnc(Nc2cc(F)c(Cl)cc2F)n1 [Example 72, 2-((4-Chloro-2,5-difluorophenyl)amino)-N-(4-(2,2,2-trifluoroethoxy)pyrimidin-5-yl)pyrimidine-4-carboxamide] | 290 nM | 1.1 nM | 1.6 nM | 
5 | O=C(Nc1cncc(-c2ccccc2F)c1)c1ccnc(Nc2ccc(OC(F)F)nc2)n1 [Example 105, 2-((6-(Difluoromethoxy)pyridin-3-yl)amino)-N-(5-(2-fluorophenyl)pyridin-3-yl)pyrimidine-4-carboxamide] | 2100 nM | 15 nM | 31 nM | 
6 | CN(C)c1ccc(Nc2nccc(C(=O)Nc3cnccc3-c3ccccc3)n2)cn1 [Example 93, 2-((6-(Dimethylamino)pyridin-3-yl)amino)-N-(4-phenylpyridin-3-yl)pyrimidine-4-carboxamide] | 390 nM | 3.1 nM | 4.3 nM | 
7 | O=C(Nc1cncnc1N1CCOCC1)c1ccnc(NCC2CCC2)n1 [Example 203, 2-((Cyclobutylmethyl)amino)-N-(4-morpholinopyrimidin-5-yl)pyrimidine-4-carboxamide] | 600 nM | 6.1 nM |  | 8.7 nM
8 | CC(=O)Nc1ccc(Nc2nccc(C(=O)Nc3cnccc3-c3ccccc3)n2)cn1 [Example 87, 2-((6-Acetamidopyridin-3-yl)amino)-N-(4-phenylpyridin-3-yl)pyrimidine-4-carboxamide] | 150 nM | 0.92 nM | 1.4 nM | 
9 | N#Cc1ccc(Nc2nccc(C(=O)Nc3cnccc3-c3ccccc3)n2)cc1C(F)(F)F [Example 28, 2-((4-Cyano-3-(trifluoromethyl)phenyl)amino)-N-(4-phenylpyridin-3-yl)pyrimidine-4-carboxamide] | 170 nM | 0.9 nM |  | 1.5 nM
10 | CC(C)(C)CNc1nccc(C(=O)Nc2cncnc2N2CCOCC2)n1 [Example 204] | 1100 nM | 11 nM | 13 nM | 
11 | O=C(Nc1cnccc1OCC(F)(F)F)c1ccnc(Nc2ccc3cccnc3c2)n1 [Example 107, 2-(Quinolin-7-ylamino)-N-(4-(2,2,2-trifluoroethoxy)pyridin-3-yl)pyrimidine-4-carboxamide] | 9.4 nM | 0.24 nM | 0.17 nM | 
12 | O=C(Nc1cnc(F)cc1N1CCOCC1)c1ccnc(Nc2cccc(Cl)c2)n1 [Example 168] | 21 nM | 0.2 nM | 0.17 nM | 
13 | O=C(Nc1cnccc1-c1ccccc1)c1ccnc(Nc2ccccn2)n1 [Example 163, N-(4-Phenylpyridin-3-yl)-2-(pyridin-2-ylamino)pyrimidine-4-carboxamide] | 10000 nM | 210 nM | 310 nM | 
14 | O=C(Nc1cnc(F)cc1N1CCC(F)(F)CC1)c1ccnc(NCC2CC2)n1 [Example 179, 2-((Cyclopropylmethyl)amino)-N-(4-(4,4-difluoropiperidin-1-yl)-6-fluoropyridin-3-yl)pyrimidine-4-carboxamide] | 94 nM | 0.61 nM | 0.7 nM | 
15 | O=C(Nc1cnccc1OCC(F)(F)F)c1ccnc(NC2CCCOC2)n1 (stereo not drawn) [Example 85, 2-((Tetrahydro-2H-pyran-3-yl)amino)-N-(4-(2,2,2-trifluoroethoxy)pyridin-3-yl)pyrimidine-4-carboxamide] | 17 nM | 0.41 nM | 0.51 nM | 
16 | Cn1ccc(Nc2nccc(C(=O)Nc3cnccc3-c3ccccc3)n2)n1 [Example 98, 2-((1-Methyl-1H-pyrazol-3-yl)amino)-N-(4-phenylpyridin-3-yl)pyrimidine-4-carboxamide] | 2600 nM | 37 nM | 46 nM | 
17 | O=C(Nc1cncc(-c2ccccc2F)c1)c1ccnc(Nc2cccc(OC(F)(F)F)c2)n1 [Example 187, N-(5-(2-Fluorophenyl)pyridin-3-yl)-2-((3-(trifluoromethoxy)phenyl)amino)pyrimidine-4-carboxamide] | 2500 nM | 7.9 nM | 13 nM | 

Row | Compound | IC50 (pTau) | IC50 (GSK3α) | IC50 (GSK3β; [1]) | IC50 (GSK3β)
18 | N#Cc1ccc(Nc2nccc(C(=O)Nc3cnccc3-c3ccccc3)n2)c(Cl)c1 [Example 24, 2-((2-Chloro-4-cyanophenyl)amino)-N-(4-phenylpyridin-3-yl)pyrimidine-4-carboxamide] | 170 nM | 1.6 nM | 3.8 nM | 
19 | Cc1ccccc1-c1cccc(Nc2nccc(C(=O)Nc3cncnc3)n2)c1 [Example 196, 2-((2′-Methyl-[1,1′-biphenyl]-3-yl)amino)-N-(pyrimidin-5-yl)pyrimidine-4-carboxamide] | 840 nM | 3.9 nM | 5.2 nM | 
20 | O=C(Nc1cnccc1-c1ccccc1)c1ccnc(Nc2ccc(Cl)cc2F)n1 [Example 26, 2-((4-Chloro-2-fluorophenyl)amino)-N-(4-phenylpyridin-3-yl)pyrimidine-4-carboxamide] | 110 nM | 0.33 nM | 0.57 nM | 
21 | N#Cc1ccc(Nc2nccc(C(=O)Nc3cnc(F)cc3N3CCOCC3)n2)cc1 [Example 174, 2-((4-Cyanophenyl)amino)-N-(6-fluoro-4-morpholinopyridin-3-yl)pyrimidine-4-carboxamide] | 54 nM | 1.6 nM | 1.1 nM | 
22 | O=C(Nc1cncnc1)c1ccnc(Nc2cccc(-c3ccccc3)c2)n1 [Example 194, 2-([1,1′-Biphenyl]-3-ylamino)-N-(pyrimidin-5-yl)pyrimidine-4-carboxamide] | 390 nM | 2.9 nM | 4.4 nM | 
23 | O=C(Nc1cncnc1)c1ccnc(N[C@H]2C[C@@H]2c2ccccc2)n1 [Example 202, 2-(((1S,2R)-2-Phenylcyclopropyl)amino)-N-(pyrimidin-5-yl)pyrimidine-4-carboxamide] | 2300 nM | 57 nM | 120 nM | 
24 | N#Cc1ccc(Nc2nccc(C(=O)Nc3cnccc3-c3ccccc3)n2)cc1Cl [Example 27, 2-((3-Chloro-4-cyanophenyl)amino)-N-(4-phenylpyridin-3-yl)pyrimidine-4-carboxamide] | 20 nM | 0.16 nM |  | 0.24 nM
25 | O=C(Nc1cncnc1)c1ccnc(NCC2CC2c2ccc(F)cc2F)n1 (stereo not drawn) [Example 197, 2-(((2-(2,4-Difluorophenyl)cyclopropyl)methyl)amino)-N-(pyrimidin-5-yl)pyrimidine-4-carboxamide] | 5100 nM | 21 nM | 24 nM | 
26 | O=C(Nc1cnccc1OCC(F)(F)F)c1ccnc(NCc2ccccc2C(F)(F)F)n1 [Example 137, N-(4-(2,2,2-Trifluoroethoxy)pyridin-3-yl)-2-((2-(trifluoromethyl)benzyl)amino)pyrimidine-4-carboxamide] | 350 nM | 2.3 nM | 4.1 nM | 
27 | Cc1cc(Nc2nccc(C(=O)Nc3cnccc3-c3ccccc3)n2)ccn1 [Example 36, 2-((2-Methylpyridin-4-yl)amino)-N-(4-phenylpyridin-3-yl)pyrimidine-4-carboxamide] | 36 nM | 0.55 nM |  | 0.84 nM
28 | O=C(Nc1cnccc1-c1ccc(F)cc1F)c1ccnc(Nc2ccc(F)cc2F)n1 [Example 155] | 10000 nM | 0.97 nM | 1.5 nM | 
29 | O=C(Nc1cnccc1-c1ccccc1)c1ccnc(Nc2ccc(-n3ccnc3)cc2)n1 [Example 16, 2-((4-(1H-Imidazol-1-yl)phenyl)amino)-N-(4-phenylpyridin-3-yl)pyrimidine-4-carboxamide] | 5700 nM | 36 nM | 54 nM | 
30 | O=C(Nc1cnc(F)cc1N1CCOCC1)c1ccnc(Nc2ccc(Cl)c(F)c2)n1 [Example 169, 2-((4-Chloro-3-fluorophenyl)amino)-N-(6-fluoro-4-morpholinopyridin-3-yl)pyrimidine-4-carboxamide] | 34 nM | 0.15 nM | 0.27 nM | 
31 | O=C(Nc1cnccc1OCC(F)(F)F)c1ccnc(NCc2cc(C(F)(F)F)cc(C(F)(F)F)c2)n1 [Example 144, 2-((3,5-Bis(trifluoromethyl)benzyl)amino)-N-(4-(2,2,2-trifluoroethoxy)pyridin-3-yl)pyrimidine-4-carboxamide] | 10000 nM | 200 nM | 210 nM | 
32 | O=C(Nc1cncnc1OCC(F)(F)F)c1ccnc(Nc2ccc(Cl)cc2)n1 [Example 67, 2-((4-Chlorophenyl)amino)-N-(4-(2,2,2-trifluoroethoxy)pyrimidin-5-yl)pyrimidine-4-carboxamide] | 90 nM | 0.36 nM | 0.97 nM | 
33 | CC(C)CNc1ccc(Nc2nccc(C(=O)Nc3cnccc3-c3ccccc3)n2)cn1 [Example 100, 2-((6-(Isobutylamino)pyridin-3-yl)amino)-N-(4-phenylpyridin-3-yl)pyrimidine-4-carboxamide] | 10000 nM | 65 nM | 93 nM | 
